US20090030034A1, “USE OF FGF INHIBITING SUBSTITUTED 1,2,3 INDOLIZINE DERIVATIVES IN THE PREPARATION OF MEDICAMENTS WHICH CAN BE USED TO TREAT DISEASES LINKED TO PATHOLOGICAL CHOROIDAL ANGIOGENESIS” (SANOFI-AVENTIS, priority 2004, published 2009)

Test system: laser-induced choroidal neovascularization
Assay: Laser induction of choroidal neovascularization in mice, oral treatment
Assay type: in vivo, C57BI6 mice
Details: 30 mg/kg/day orally during the last 7 days, day 14 after induction
Procedure: C57BI6 mice were used in these experiments. A model of laser-induced choroidal neovascularization (4 impacts per eye around the papilla) was applied to the animals as described by Tobe et al. Am. J. Pathol., 1998).
On day 14 after the induction and after monitoring by angiography, which makes it possible to estimate the percentage of lesions developing neovascularization, the animals are sacrificed and the eyeballs are enucleated for histological analysis. The mice are treated orally with one of the compounds of formula (I) during the last 7 days. The dose chosen for the monohydrate of the sodium salt of 2-amino-5-[(1-methoxy-2-methylindolizin-3-yl)carbonyl]benzoic acid is 30 mg/kg/day. The vehicle used is a 0.6% solution of methylcellulose in water.
Four mice are used for the control group and six mice for the treated group.
The size of the neovascular reaction is estimated from frozen sections by morphometric evaluations of the thickness using a computerized image analysis system. […]
Estimation is carried out by measuring the B/C ratio between, on the one hand, the EPR and the peak of the neovascular reaction (“B”), and, on the other hand, the thickness of the adjacent intact choroidal layer (“C”). This quantifying system was preferred to measuring surface areas of lesions as it is independent of the orientation of the histological sections.

Which “histological analysis and anti-CD31 immunohistochemistry of the laser impact sites” value does the source give for `COc1c(C)c(C(=O)c2ccc(N)c(C(=O)O)c2)n2ccccc12` [2-amino-5-[(1-methoxy-2-methylindolizin-3-yl)carbonyl]benzoic acid] here?
Its value is “only a moderate thickening of the choriocapillary where the impacts occurred, without obvious sign of neovascularization”.

What about the “reduction of the laser-induced neovascular reaction, quantified by the B/C ratio, in comparison with the control mice” value (frozen sections, morphometric thickness, p<0.001) of the same compound?
Its value is ~50%.
